# Experimental data as given in patent EP4793292A1, “POLYPEPTIDE DERIVATIVE, PHARMACEUTICAL COMPOSITION THEREOF AND USE THEREOF” (Biocells (Beijing) Biotech Co., Ltd., priority 2023, dated 2025).
# Starred links: 1 amine or outer side, 2 acyl side, 3 side chain; linkers in the order of their positions; H or OH if unused. Positions of bridges follow the written chain, without caps; N, C: chain ends. Non-standard residues stand in square brackets, D forms with d. Residues, ends and D or L forms follow the SMILES beside them. Groups on a side chain read outwards from the residue. No end group written: not given here. *: point of attachment. C18 diacid = O=C(O)CCCCCCCCCCCCCCCCC(=O)*; γGlu = O=C(O)[C@H](CCC(=O)[*:2])N[*:1]; Palmitoyl = CCCCCCCCCCCCCCCC(=O)*; Lauroyl = CCCCCCCCCCCC(=O)*; AEEA = NCCOCCOCC(=O)O
# Tested on: SH-SY5Y cells
# Experiment: Axonal growth of RA-differentiated SH-SY5Y cells on proteoglycan (ACAN) coating
# Assay type: cell-based, human
# Settings: PW polypeptide 2.5 µM, 72 h, proteoglycan (ACAN)-coated plate, FIG. 1
# Procedure: Therefore, RA-induced differentiated SH-SY5Y can be used to simulate neuronal axonal growth in vitro and to test the effects of PW polypeptides on axonal growth.
# Preparation of culture medium for SH-SY5Y: 1) DMEM/F12 + 10% FBS + 1 × penicillin-streptomycin + 1 mM sodium pyruvate; 2) DMEM/F12 + 1% FBS + 1 × penicillin-streptomycin + 1 mM sodium pyruvate. Preparation of 50 mM retinoic acid stock solution: 15.02 mg of retinoic acid was weighed and dissolved in 1 mL of dimethyl sulfoxide (DMSO), aliquoted, and frozen at -80°C. Proteoglycan (ACAN/CSPG1) is a type of chondroitin sulfate proteoglycan (CSPG). Preparation of 1 mg/mL proteoglycan stock solution: 1 mg of ACAN solid was dissolved in 1 mL of distilled water, aliquoted, and frozen at -80°C. Preparation of PW polypeptide solution for cells (1 mM): the corresponding mass of polypeptide powder was weighed, dissolved in PBS and filtered through a 0.2 µm filter membrane, aliquoted, and frozen at -20°C.
# The 1 mg/mL proteoglycan was diluted to 250 µg/mL with distilled water to coat a 24-well cell culture plate: each well was coated with 3 droplets of ACAN, 2 µL per droplet. Using the culture medium containing 10% FBS, SH-SY5Y cells were seeded in the proteoglycan-coated 24-well plate (20,000 cells/well) and incubated (37°C, 5% CO2) for 20 h. The medium was replaced with a culture medium containing 1% FBS, and PW polypeptide (2.5 µM) or an equal volume of PBS solution was added. After incubation for 72 h, the cells were fixed with 4% paraformaldehyde (room temperature, 30 min), and cell morphology was photographed and recorded using a 10× optical microscope. 20-30 cells were randomly selected under each field of view, and axonal length was measured using Image J-SNT.
# Data analysis: All measured axonal lengths within each proteoglycan-coated range were averaged to serve as one data point. One-way analysis of variance and Tukey's test were used to compare the differences between groups. P<0.05 was considered as a significant difference.
Compound,promoting effect on axonal growth compared with PW6,"effect of promoting axonal growth compared with the scrambled polypeptide (Scr, negative control)"
"PW-95: polypeptide derivative, SEQ ID NO: 12 (GRKKRRQRRRCDMAEHTERLKAKDSLKLSQEYESI; not fully specified; MOD_RES 35: note = I at position 35 is amidated; LIPID 23: note = Lys side-chain linked to 2-(2-(2-amino ethoxy) ethoxy) acetic acid-2-(2-(2-amino ethoxy) ethoxy)acetic acid-gamma Glutamic acid-Octadecanedioic acid; SITE 6: note = D-arginine; SITE 2: note = D-arginine; SITE 8: n)",not significantly enhanced,
"PW-92: polypeptide derivative, SEQ ID NO: 10 (G[dR]KKR[dR]QRRRCDMAEHTERLK([AEEA-AEEA-γGlu-C18 diacid])ANDSLKLSQEYESI-NH2; not fully specified (residue 8))",no significant difference,significant effect of promoting axonal growth
"PW-261: polypeptide derivative, SEQ ID NO: 51 (G[dR]KKR[dR]Q[dR]RRDMAEHTERLK([AEEA-γGlu-Lauroyl])ANDSLKLSQEYESI-NH2; N-terminus assumed; SMILES CCCCCCCCCCCC(=O)N[C@@H](CCC(=O)NCCOCCOCC(=O)NCCCC[C@H](NC(=O)[C@H](CC(C)C)NC(=O)[C@H](CCCNC(=N)N)NC(=O)[C@H](CCC(=O)O)NC(=O)[C@@H](NC(=O)[C@H](Cc1c[nH]cn1)NC(=O)[C@H](CCC(=O)O)NC(=O)[C@H](C)NC(=O)[C@H](CCSC)NC(=O)[C@H](CC(=O)O)NC(=O)[C@H](CCCNC(=N)N)NC(=O)[C@H](CCCNC(=N)N)NC(=O)[C@@H](CCCNC(=N)N)NC(=O)[C@H](CCC(N)=O)NC(=O)[C@@H](CCCNC(=N)N)NC(=O)[C@H](CCCNC(=N)N)NC(=O)[C@H](CCCCN)NC(=O)[C@H](CCCCN)NC(=O)[C@@H](CCCNC(=N)N)NC(=O)CN)[C@@H](C)O)C(=O)N[C@@H](C)C(=O)N[C@@H](CC(N)=O)C(=O)N[C@@H](CC(=O)O)C(=O)N[C@@H](CO)C(=O)N[C@@H](CC(C)C)C(=O)N[C@@H](CCCCN)C(=O)N[C@@H](CC(C)C)C(=O)N[C@@H](CO)C(=O)N[C@@H](CCC(N)=O)C(=O)N[C@@H](CCC(=O)O)C(=O)N[C@@H](Cc1ccc(O)cc1)C(=O)N[C@@H](CCC(=O)O)C(=O)N[C@@H](CO)C(=O)N[C@H](C(N)=O)[C@@H](C)CC)C(=O)O)",no significant difference,significant effect of promoting axonal growth
"PW-96: polypeptide derivative, SEQ ID NO: 13 (GRKKRRQRRRDMAEHTERLKAKDSLKLSQEYESI; not fully specified; MOD_RES 34: note = I at position 34 is amidated; LIPID 22: note = Lys side-chain linked to 2-(2-(2-amino ethoxy) ethoxy) acetic acid-2-(2-(2-amino ethoxy) ethoxy)acetic acid-gamma Glutamic acid-Octadecanedioic acid; SITE 6: note = D-arginine; SITE 2: note = D-arginine; SITE 8: n)",not significantly enhanced,
"PW-259: polypeptide derivative, SEQ ID NO: 50 (G[dR]KKR[dR]Q[dR]RRDMAEHTERLK([AEEA-γGlu-Palmitoyl])ANDSLKLSQEYESI-NH2; N-terminus assumed; SMILES CCCCCCCCCCCCCCCC(=O)N[C@@H](CCC(=O)NCCOCCOCC(=O)NCCCC[C@H](NC(=O)[C@H](CC(C)C)NC(=O)[C@H](CCCNC(=N)N)NC(=O)[C@H](CCC(=O)O)NC(=O)[C@@H](NC(=O)[C@H](Cc1c[nH]cn1)NC(=O)[C@H](CCC(=O)O)NC(=O)[C@H](C)NC(=O)[C@H](CCSC)NC(=O)[C@H](CC(=O)O)NC(=O)[C@H](CCCNC(=N)N)NC(=O)[C@H](CCCNC(=N)N)NC(=O)[C@@H](CCCNC(=N)N)NC(=O)[C@H](CCC(N)=O)NC(=O)[C@@H](CCCNC(=N)N)NC(=O)[C@H](CCCNC(=N)N)NC(=O)[C@H](CCCCN)NC(=O)[C@H](CCCCN)NC(=O)[C@@H](CCCNC(=N)N)NC(=O)CN)[C@@H](C)O)C(=O)N[C@@H](C)C(=O)N[C@@H](CC(N)=O)C(=O)N[C@@H](CC(=O)O)C(=O)N[C@@H](CO)C(=O)N[C@@H](CC(C)C)C(=O)N[C@@H](CCCCN)C(=O)N[C@@H](CC(C)C)C(=O)N[C@@H](CO)C(=O)N[C@@H](CCC(N)=O)C(=O)N[C@@H](CCC(=O)O)C(=O)N[C@@H](Cc1ccc(O)cc1)C(=O)N[C@@H](CCC(=O)O)C(=O)N[C@@H](CO)C(=O)N[C@H](C(N)=O)[C@@H](C)CC)C(=O)O)",no significant difference,significant effect of promoting axonal growth
CC[C@H](C)[C@H](NC(=O)[C@H](CO)NC(=O)[C@H](CCC(=O)O)NC(=O)[C@H](Cc1ccc(O)cc1)NC(=O)[C@@H]1CCC(=O)NCCCC[C@H](NC(=O)[C@H](CC(C)C)NC(=O)[C@H](CO)NC(=O)[C@H](CC(=O)O)NC(=O)[C@H](CC(N)=O)NC(=O)[C@H](C)NC(=O)[C@H](CCCCN)NC(=O)[C@H](CC(C)C)NC(=O)[C@H](CCCNC(=N)N)NC(=O)[C@H](CCC(=O)O)NC(=O)[C@@H](NC(=O)[C@H](Cc2c[nH]cn2)NC(=O)[C@H](CCC(=O)O)NC(=O)[C@H](C)NC(=O)[C@H](CCSC)NC(=O)[C@H](CC(=O)O)NC(=O)[C@H](CS)NC(=O)[C@H](CCCNC(=N)N)NC(=O)[C@H](CCCNC(=N)N)NC(=O)[C@H](CCCNC(=N)N)NC(=O)[C@H](CCC(N)=O)NC(=O)[C@H](CCCNC(=N)N)NC(=O)[C@H](CCCNC(=N)N)NC(=O)[C@H](CCCCN)NC(=O)[C@H](CCCCN)NC(=O)[C@H](CCCNC(=N)N)NC(=O)CN)[C@@H](C)O)C(=O)N[C@@H](CC(C)C)C(=O)N[C@@H](CO)C(=O)N[C@@H](CCC(N)=O)C(=O)N1)C(N)=O [PW-170] (H-GRKKRRQRRRCDMAEHTERLKANDSLKLSQEYESI-NH2; lactam 27-31),no significant difference,significant effect of promoting axonal growth
NH2-GrKKRrQrRR-C-DMAEHTEALKANDSLcyclo(KLSQEYE)SI-NH2 [PW-239],not significantly enhanced,significant effect of promoting axonal growth
"PW-253: polypeptide derivative, SEQ ID NO: 48 (G[dR]KKR[dR]Q[dR]RRDMAEHTERLK([AEEA-AEEA-γGlu-Palmitoyl])ANDSLKLSQEYESI-NH2; N-terminus assumed; SMILES CCCCCCCCCCCCCCCC(=O)N[C@@H](CCC(=O)NCCOCCOCC(=O)NCCOCCOCC(=O)NCCCC[C@H](NC(=O)[C@H](CC(C)C)NC(=O)[C@H](CCCNC(=N)N)NC(=O)[C@H](CCC(=O)O)NC(=O)[C@@H](NC(=O)[C@H](Cc1c[nH]cn1)NC(=O)[C@H](CCC(=O)O)NC(=O)[C@H](C)NC(=O)[C@H](CCSC)NC(=O)[C@H](CC(=O)O)NC(=O)[C@H](CCCNC(=N)N)NC(=O)[C@H](CCCNC(=N)N)NC(=O)[C@@H](CCCNC(=N)N)NC(=O)[C@H](CCC(N)=O)NC(=O)[C@@H](CCCNC(=N)N)NC(=O)[C@H](CCCNC(=N)N)NC(=O)[C@H](CCCCN)NC(=O)[C@H](CCCCN)NC(=O)[C@@H](CCCNC(=N)N)NC(=O)CN)[C@@H](C)O)C(=O)N[C@@H](C)C(=O)N[C@@H](CC(N)=O)C(=O)N[C@@H](CC(=O)O)C(=O)N[C@@H](CO)C(=O)N[C@@H](CC(C)C)C(=O)N[C@@H](CCCCN)C(=O)N[C@@H](CC(C)C)C(=O)N[C@@H](CO)C(=O)N[C@@H](CCC(N)=O)C(=O)N[C@@H](CCC(=O)O)C(=O)N[C@@H](Cc1ccc(O)cc1)C(=O)N[C@@H](CCC(=O)O)C(=O)N[C@@H](CO)C(=O)N[C@H](C(N)=O)[C@@H](C)CC)C(=O)O)",no significant difference,significant effect of promoting axonal growth
